Measured values as given in publication PMC6148246, “HS-1371, a novel kinase inhibitor of RIP3-mediated necroptosis” (Experimental & Molecular Medicine, 2018).

Columns and labels:
[1] = tested on: RIP3 or MLKL-deficient cells; assay: TSZ treatment of RIP3 or MLKL knockdown HT-29 cells (MTT assay); assay type: cell-based, human; settings: HT-29 shRIP3 or shMLKL, TSZ 24 h
Protocol: MISSION short-hairpin RNA (shRNA) plasmids targeting hRIP3 mRNA (NM_006871), hMLKL mRNA (NM_152649), and non-targeting control sequences (NM_027088) were obtained from Sigma-Aldrich. Lentiviral plasmids were transfected into 293TN cells (System Biosciences, LV900A-1) using Lipofectamine 2000 (Invitrogen, 11668019). Pseudoviral particles were collected 2 days after the transfection and infected into cells with polybrene (8 μg/mL). Infected cells were puromycin selected two days after infection, and knockdown was confirmed by immunoblotting.
HT-29 cells expressing RIP3 shRNA, MLKL shRNA, or non-silencing control were analyzed by western blotting (upper panel), and these cells were treated with TSZ (6 h for immunoblotting, 24 h for cell death assay). Cell lysates were analyzed by immunoblotting (middle panel), and cell viability was analyzed by MTT assay (bottom panel). The results are presented as means ± SEM. *P < 0.05, **P < 0.01, ***P < 0.001. b HS-1371 protected cells not only from TNF-induced necroptosis but also from TRAIL-induced necroptosis. […] Cell lysates were analyzed by immunoblotting, and cell viability was analyzed by MTT assay or phase-contrast microscopy. […] Cell lysates were analyzed by immunoblotting, and cell viability was analyzed by MTT assay (TC) or CellTiter-Glo Luminescent Cell Viability Assay Kit (TS). […]

[2] = tested on: mouse embryonic fibroblast (MEF) cells; assay: TCZ-induced necroptosis in MEF cells; assay type: cell-based; settings: TNF plus cycloheximide and zVAD (TCZ)
Protocol: Cells were pretreated with DAB or HS-1371 for 2 h and then treated with TSZ (6 h for immunoblotting, 24 h for cell death assay). Cell lysates were analyzed by immunoblotting (left bottom panel), and cell viability was analyzed by MTT assay (right panel). The results are presented as means ± SEM. *P < 0.05, **P < 0.01, ***P < 0.001. c, d HS-1371 had the same effect on mouse cells. L929 (mouse sarcoma, c) and MEF (mouse embryonic fibroblast, d) cells were pretreated with inhibitors and then necroptosis was induced by TNF. Cell lysates were analyzed by immunoblotting (upper panel), and cell viability was analyzed by MTT assay (bottom panel). The results are presented as means ± SEM. *P < 0.05, **P < 0.01, ***P < 0.001

RIP3 = RIP3 (Homo sapiens, UniProt Q9Y572); assay: TNF (TSZ)-induced RIP3 and MLKL phosphorylation in HT-29 cells (immunoblot); assay type: cell-based; design: RIP3-expressing HT-29 cells; endogenous in cells; host or cells: HT-29
Chain of RIP3 (Q9Y572 whole entry): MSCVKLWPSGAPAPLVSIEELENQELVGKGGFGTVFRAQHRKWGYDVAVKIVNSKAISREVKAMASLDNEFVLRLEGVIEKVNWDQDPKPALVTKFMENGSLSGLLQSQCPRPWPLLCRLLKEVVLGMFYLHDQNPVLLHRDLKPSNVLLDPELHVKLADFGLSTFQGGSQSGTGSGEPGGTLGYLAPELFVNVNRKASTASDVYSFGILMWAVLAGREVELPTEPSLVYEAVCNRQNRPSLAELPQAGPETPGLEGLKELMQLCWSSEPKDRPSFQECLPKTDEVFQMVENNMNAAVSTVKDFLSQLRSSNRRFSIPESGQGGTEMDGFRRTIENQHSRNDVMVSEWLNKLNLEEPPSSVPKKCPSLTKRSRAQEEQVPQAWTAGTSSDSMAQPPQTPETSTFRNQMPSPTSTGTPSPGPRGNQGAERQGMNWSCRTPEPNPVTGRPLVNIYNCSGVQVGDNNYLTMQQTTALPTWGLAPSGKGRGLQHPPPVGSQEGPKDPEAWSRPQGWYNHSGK
Protocol: Cells were rinsed in cold phosphate-buffered saline (PBS) and lysed in M2 buffer containing 20 mM Tris at pH 7, 0.5% NP-40, 250 mM NaCl, 3 mM EDTA, 3 mM EGTA, 2 mM DTT, 0.5 mM PMSF, 20 mM β-glycerol phosphate, 1 mM sodium vanadate, and 1 μg/mL leupeptin. The cell extracts were subjected to western blot analysis. For immunoprecipitation, lysates were mixed and precipitated with antibody and protein A-agarose beads overnight or for 4 h at 4 °C. Bound proteins were removed by boiling in SDS and resolved by SDS-PAGE, and immunoblotting was visualized by enhanced chemiluminescence (ECL, Amersham).
Fig. 2 Novel inhibitors can block RIP3 S227 phosphorylation. a Western blotting showing various kinase inhibitor effects on RIP3 S227 auto-phosphorylation. HT-29 cells were treated with four tested kinase inhibitors (1308, 1336, 1338, and 1371, 10 μM) for 9 h. As a control, KK5101 (Trk alpha inhibitor) and HS829 (IKK beta inhibitor) were also treated at a concentration of 10 μM for 9 h. Prototypical necroptosis stimuli (TNF + zVAD + either cycloheximide or SMAC mimetic; hereafter referred to as TCZ or TSZ) were applied for 6 h. […] HT-29 cells were treated with 4 tested kinase inhibitors for 24 h, and cell viability was analyzed by MTT assay or phase-contrast microscopy. […] HT-29 cells were pretreated with necrostatin-1 (Nec-1, 40 μM), dabrafenib (DAB, 10 μM) or necrosulfonamide (NSA, 1 μM) for 2 h and then treated with TSZ for 6 h. […] HT-29 cells were pretreated with four tested kinase inhibitors for 2 h and then treated with TSZ for 6 h. Cell lysates were analyzed by immunoblotting. f HT-29 cells were pretreated with Nec-1 (40 μM), DAB (5 μM) or HS-1371 (5 μM) for 2 h and then treated with TSZ for 4 h. Cell lysates were immunoprecipitated with anti-RIP3 antibody. Immunoprecipitates and total lysates were analyzed by Western blotting
TNFα Smac mimetic and the caspase inhibitor zVAD (hereafter referred to as TSZ) is a classical combination that is used to induce RIP3-mediated necroptotic cell death[10],[32]. We first verified that three established pharmacological inhibitors of necroptosis, necrostatin-1 (Nec-1), necrosulfonamide (NSA), and dabrafenib (DAB) could block TNF-induced necroptosis (Fig. 2d). Of these inhibitors, Nec-1 inhibits RIP1 kinase activity[33],[34], DAB inhibits RIP3 kinase activity, and NSA inhibits MLKL functions downstream of RIP3 phosphorylation. […] Next, we tested whether these four inhibitors would inhibit TNF-induced necroptosis signaling by blocking RIP3 kinase activity. […] The effect of HS-1371 on RIP3 kinase activity was compared with another RIP3 inhibitor, GSK’872[16].

With `Cc1ccc(Oc2ccnc3cc(-c4cnn(C5CCNCC5)c4)ccc23)cc1` [HS-1371, 7-(1-(Piperidin-4-yl)-1H-pyrazol-4-yl)-4-(p-tolyloxy)quinoline] the “cell viability in RIP3 or MLKL-deficient cells treated with TSZ” value [1] was “did not obviously affect cell viability”, the “MLKL phosphorylation and cell death” value [2] was “effectively prevented” and the “RIP3 phosphorylation, pre-treatment and post-treatment” value (RIP3; HT-29, 5 μM, pretreated 1 h or applied 1 or 2 h after induction) was “completely inhibited”. The “MLKL phosphorylation, post-treatment after TSZ” value (RIP3; HT-29, post-treatment until approximately 5 h after TSZ) was “partially blocked”, the “RIP3 phosphorylation, pre-treatment and post-treatment, low concentrations” value (RIP3; HT-29, pretreated 1 h or applied 1 or 2 h after induction, low concentrations) was “partial inhibitory effect” and the “effect on TNF-induced necroptosis signaling (phosphorylation of RIP3 and MLKL)” value (RIP3; HT-29, pretreated 2 h, TSZ 6 h) was “complete inhibitory effect”.
